Experiment: xn = mol fraction of the nth substance listed

ClCCCl + CCCO
101 kPa
Details | viscosity [mPa·s]
293.15 K, x2 = 0.9052 | 1.795
298.15 K, x2 = 0.614 | 1.035
303.15 K, x2 = 0.1182 | 0.6969
303.15 K, x2 = 0.2163 | 0.6888
303.15 K, x2 = 0.5579 | 0.9007
303.15 K, x2 = 0.6721 | 1.034
303.15 K, x2 = 0.836 | 1.328
313.15 K, x2 = 0.1182 | 0.6089
313.15 K, x2 = 0.2163 | 0.6167
313.15 K, x2 = 0.326 | 0.6293
313.15 K, x2 = 0.5579 | 0.7563
313.15 K, x2 = 0.6721 | 0.8514
313.15 K, x2 = 0.836 | 1.071
323.15 K, x2 = 0.1182 | 0.5483
323.15 K, x2 = 0.2163 | 0.5488
323.15 K, x2 = 0.326 | 0.5542
323.15 K, x2 = 0.5579 | 0.6484
323.15 K, x2 = 0.6721 | 0.721
323.15 K, x2 = 0.836 | 0.8872

C[C@H]1COc2c(N3CCN(C)CC3)c(F)cc3c(=O)c(C(=O)O)cn1c23 + O
viscosity [mPa·s], 100 kPa
Details | 293.15 K | 298.15 K | 303.15 K | 308.15 K | 313.15 K
x1 = 0.00015 | 1.009 | 0.8934 | 0.8026 | 0.7256 | 0.6575
x1 = 0.000344 | 1.016 | 0.889 | 0.8085 | 0.7296 | 0.6617
x1 = 0.000425 | 1.019 | 0.9064 | 0.8134 | 0.7336 | 0.6673

CCNc1ccccc1 + Oc1ccccc1
viscosity [mPa·s], 101 kPa
Details | 298.15 K | 313.15 K | 323.15 K
x1 = 0.0794 | 8.63 | 4.35 | 3.14
x1 = 0.1373 | 8.82 | 4.53 | 3.16
x1 = 0.206 | 8.53 | 4.34 | 3.06
x1 = 0.2495 | 8.18 | 4.26 | 3.13
x1 = 0.3418 | 7.28 | 3.96 | 2.97
x1 = 0.4372 | 5.98 | 3.41 | 2.54
x1 = 0.5 | 5.1 | 2.99 | 2.15
x1 = 0.5381 | 4.77 | 2.78 | 2.1
x1 = 0.6445 | 3.68 | 2.31 | 1.76
x1 = 0.7005 | 3.27 | 2.06 | 1.62
x1 = 0.7565 | 2.9 | 1.88 | 1.54
x1 = 0.8744 | 2.22 | 1.55 | 1.24

CCNc1ccccc1 + Clc1ccccc1
viscosity [mPa·s], 101 kPa
Details | 303.15 K | 308.15 K
x1 = 0.0629 | 0.767 | 0.72
x1 = 0.1159 | 0.816 | 0.758
x1 = 0.1959 | 0.894 | 0.823
x1 = 0.2558 | 0.954 | 0.873
x1 = 0.3298 | 1.028 | 0.937
x1 = 0.3968 | 1.096 | 0.995
x1 = 0.4856 | 1.188 | 1.073
x1 = 0.5625 | 1.267 | 1.141
x1 = 0.6359 | 1.342 | 1.206
x1 = 0.7025 | 1.412 | 1.266
x1 = 0.7839 | 1.499 | 1.34
x1 = 0.8592 | 1.581 | 1.411
x1 = 0.9215 | 1.65 | 1.473

ClCCl + CCCCO
303.15 K, 101.3 kPa
Details | viscosity [mPa·s]
x2 = 0.036 | 0.4023
x2 = 0.0601 | 0.4082
x2 = 0.1127 | 0.4291
x2 = 0.1672 | 0.4596
x2 = 0.3142 | 0.5767
x2 = 0.4391 | 0.7209
x2 = 0.5585 | 0.9132
x2 = 0.6635 | 1.143
x2 = 0.7658 | 1.428
x2 = 0.8429 | 1.684
x2 = 0.9 | 1.89
x2 = 0.9566 | 2.105

ClCCl + CCCCCO
298.15 K, 101 kPa
Details | viscosity [mPa·s]
x2 = 0.0966 | 0.7741
x2 = 0.194 | 1.097
x2 = 0.2921 | 1.391
x2 = 0.3909 | 1.669
x2 = 0.4905 | 1.93
x2 = 0.5908 | 2.182
x2 = 0.6919 | 2.437
x2 = 0.7938 | 2.688
x2 = 0.8965 | 2.927

Reference: the CheMixHub viscosity set
